Like-named read-outs stand apart in the source and are kept apart here.
Tests used:
T-45 cells = assay type: cell-based, human; conditions: for Estimated Cell Growth Virus-uninfected Day 7: no-drug control 1.2x10^6; for cytotoxicity: non-infected cells, over the concentration range used (Fig. 3, Table 1), result in words
Experimental: FIG. 1 is a schematic outline of the test procedure used to assess the cytotoxic effect of test compounds on T-cells either infected or non-infected with HIV and in parallel the HIV inhibitory activity of the test compounds. TCID is the tissue culture infectious dose. Cells were cultured in RPMI-1640 medium with 10% fetal calf serum containing 100 units/ml penicillin G and 100 µg/ml streptomycin.
(§1) The assay was run in 96 well plastic microtiter plates in which 0.2 ml of culture medium containing 10^4 T-cells are seeded into each well. RPMI-1640 supplemented with 10% fetal calf serum was used as the culture medium. In each assay, 6 wells are used. Three (1-3) are infected with 10^4 TCID/well of HIV-1 or HIV-2 and to the other three (4-6) culture medium alone is added. Medium is changed at the same intervals for each test compound. The detailed assay procedure is illustrated in Figures 1 and 2.
(§2) The efficacy of the test compounds used in this example was assessed as follows: 0.2 ml of culture medium containing 10^4 T-45 cells were transferred into each well of a 96-well flat-bottomed tissue-culture plastic plate and the cells were allowed to settle at 37°C (see Figure 1). After 4 hours the media were aspirated and replaced with media which contained the test compound. Following overnight incubation the media was aspirated and 10^4 TCID of virus (HIV-1 or HIV-2) was added to each well. Incubation was continued at 37°C in 5% CO2 for 1 hour. Thereafter, growth media containing the various compounds were added and incubation at 37°C was continued. On the fourth day the cell suspensions from each well were split and seeded into two new wells and 0.2 ml of fresh media with compounds was added. This was repeated on the seventh day. Cells were examined by microscopy during days 1 to 10 for the presence of syncytia, growth rate and the appearance of the cytopathic effect (CPE) (giant cells, pycnotic nuclei, loss of refractility). CPE (100%) was defined as no round, refractile, uniform cells remaining; only giant, ballooned pyknotic cells were present. The viability of HIV infected cultures was determined by a rough count/estimate of cells which underwent CPE in relation to round refractile uniform (normal) cells in a given culture.
Quantitative data on the effect of the various compounds on the non-infected cells (cytotoxicity) was obtained by comparison of their growth rate to control cells not exposed to drugs (Table 1). […] In addition, the MOLT-4 cell line was also used.

HIV-2 = assay: Virus titer (TCID) of HIV-2 infected T-cell cultures grown with test compound; assay type: cell-based; conditions: control 10^6; for HIV-2 (TCID): Table 2, 0.10 mg/ml, 10^4 T-45 or MOLT-4 cells (identical results), 10^4 TCID inoculum, after day 10; for VIRUS TITER HIV-2: Table 3, Example 2, 0.1 mg/ml, T-45 and MOLT-4 cells, 10^4 TCID on 10^4 cells
Experimental: Cell free suspensions of the HIV were prepared from infected cultures. The concentration of infectious particles was estimated on end-point titration assay using serial ten-fold dilutions. The approximate number of infectious particles in each preparation was determined by the highest dilution which contains infectious HIV as determined by synctial formation, cytopathicity [Leonard et al., Proc. Natl. Acad. Sci. USA 85, 3570-3574 (1988); Barre-Sinoussi et al., Science 220, 868-870 (1983)] and HIV antigen [Karpas et al., Lancet 1, 695-697 (1985)] synthesis after 10 days of culture with 10^4 T-cells. This represents the concentration of infectious particles, herein defined as the tissue culture infectious dose (TCID).
as §1
as §2, with “culture. Cells in wells which were incubated with compounds which appeared to inhibit or reduce HIV replication and in which there was marked cell proliferation were either transferred to larger wells (of a 24-well plate) or divided in order to maintain an approximate constant cell density to promote continuous cell division.” for “culture.”
That is, HIV-1 was first passaged in T-45 cells; likewise, HIV-1 was first passaged in MOLT-4 cells. The same passaging was done with HIV-2. The test compounds were used at a concentration of 0.1 mg/ml. 10^4 TCID of HIV-1 and separately of HIV-2 were used to infect 10^4 cells. Upon completion of the test, the virus titers were as follows: TABLE 3

HIV = assay: Inhibition of HIV-associated cytopathic effect (CPE) in T-45 cells; assay type: cell-based; conditions: HIV infected T-45 cells, various concentrations (Fig. 3); result in words
Experimental: FIG. 3 is a graphical representation in which the inhibition of HIV associated CPE (―% CPE) reduction) and test compound-associated cytotoxicity (---% cell death) is plotted against the media concentration in mg/ml of several test compounds (drugs). The cell viability data was determined for non-HIV infected cells. The test compounds were the N-methyl-, N-ethyl-, and N-butyl derivatives of deoxynojirimycin (DNJ), castanospermine (Cast), N-(5-carboxymethyl-1-pentyl)-1,5-imino-L-fucitol (LFT) and 1,4-dideoxy-1,4-imino-L-arabinitol (LAB).
After a suitable period of incubation, the cultures are scored for the presence of so-called syncytial cells (giant cells). Typical examples of such a test for the evaluation of inhibitors of HIV have been disclosed by Fung et al., Bio/Technology 5, 940-946 (1987); Tyms et al., Lancet, October 31, 1987, pp. 1025-1026; Gruters et al., Nature 330, 74-77 (1987); and Walker et al., Proc. Natl. Acad. Sci. USA 84, 8120-8124 (1987).
as §2, with “culture. Cells in wells which were incubated with compounds which appeared to inhibit or reduce HIV replication and in which there was marked cell proliferation were either transferred to larger wells (of a 24-well plate) or divided in order to maintain an approximate constant cell density to promote continuous cell division.” for “culture.”

CCCCN1C[C@H](O)[C@@H](O)[C@H](O)[C@H]1CO [BuDNJ, N-n-butyl-deoxynojirimycin]
Estimated Cell Growth Virus-uninfected Day 7 (T-45 cells; Dosage 0.01 mg/ml): 1.2x10^6 | Estimated Cell Growth Virus-uninfected Day 7 (T-45 cells; Dosage 0.05 mg/ml): 1.2x10^6 | Estimated Cell Growth Virus-uninfected Day 7 (T-45 cells; Dosage 0.10 mg/ml): 1.4x10^6 | cytotoxicity (T-45 cells): showed no cytotoxicity over the concentration range used | HIV-2 (TCID) (HIV-2): <10 TCID | VIRUS TITER HIV-2 (HIV-2): 10 | effect on CPE formation (HIV): completely prevented CPE in the HIV infected cells at all concentrations tested

CN1C[C@H](O)[C@@H](O)[C@H](O)[C@H]1CO [MeDNJ, N-methyl-deoxynojirimycin]
Estimated Cell Growth Virus-uninfected Day 7 (T-45 cells; Dosage 0.01 mg/ml): 1.2x10^6 | Estimated Cell Growth Virus-uninfected Day 7 (T-45 cells; Dosage 0.05 mg/ml): 1.2x10^6 | Estimated Cell Growth Virus-uninfected Day 7 (T-45 cells; Dosage 0.10 mg/ml): 1.0x10^6 | Estimated Cell Growth Virus-uninfected Day 7 (T-45 cells; Dosage 0.25 mg/ml): 1.0x10^6 | Estimated Cell Growth Virus-uninfected Day 7 (T-45 cells; Dosage 0.50 mg/ml): 5.0x10^6 | cytotoxicity (T-45 cells): cytotoxic | HIV-2 (TCID) (HIV-2): 10^2 TCID | VIRUS TITER HIV-2 (HIV-2): 10^2 | effect on CPE formation (HIV): bell shaped dose-dependence
